Five molecules from US10253081B2, “Glucagon analogues” (Zealand Pharma A/S, priority 2012, dated 2019) can be followed below.

The structures appear in SMILES notation. “And” between values parts separate entries of the source, which are not always exact repeats. Identical values can stand only once. Like-named read-outs stand apart in the source and are kept apart here. *1 amine or outer side, *2 acyl side, *3 side chain or, on linkers, in order; H or OH if unused. Where a SMILES comes first, the peptide text is derived from it. Side-chain parts run from the residue outwards. [ ]: non-standard residue; d: D form. The star is where a group is joined. γGlu = O=C(O)[C@H](CCC(=O)[*:2])N[*:1]; Palmitoyl = CCCCCCCCCCCCCCCC(=O)*; Aib = CC(C)(N)C(=O)O

The nature of data set [1]: Sub-chronic effects on adiposity/body weight in diet-induced obese mice. In kind it is in vivo, C57BL/6J mice. The following applies: DIO mice, 5 nmol/kg s.c. twice daily for 31 days. The protocol: Male C57BL/6J mice (Taconic A/S, Denmark) at an age of 5 weeks were maintained on a 12:12 hour light-dark cycle on a high-fat diet (60% of total energy from fat, D12492, Research Diet Inc.) for 20 weeks. All mice (housed 2 per cage) were then mock-treated for a week to acclimatize the animals to handling and injections. Subsequently, the mice were stratified according to body fat mass (measured by magnetic resonance technique) and body weight into 9 groups (n=9-12). Animals were thereafter treated twice daily with subcutaneous injections (5 ml/kg) of vehicle (25 mM phosphate buffer, pH 7.4) or test substances (5 nmol/kg per administration, in equivalent amount of vehicle) for a total of 31 days. The daily injections were given at the start and at the end of the light phase. Body weight, food and water intake were determined daily throughout the study. The data are presented in Table 6 as mean body weight change±S.E.M. S.E.M. is defined as standard error of the mean and was calculated using the formula: S.E.M.=SD/square root (n), where SD is the standard deviation and n the number of observations (in this case animals/group).
Statistical analyses were performed using Graph Pad Prism version 5. The measured parameters were compared using one-way ANOVA followed by Dunnett's multiple comparison test. Differences were considered statistically significant at p<0.05.

Data set [2] has as its target T1, endogenous glucagon receptor (Rattus norvegicus, UniProt P30082).
T1 construct: Agonistic activity of the test compounds on endogenous glucagon receptor; endogenous in cells; host or cells: primary rat hepatocytes
Nature of the data set: Agonistic activity on endogenous glucagon receptor (glycogen synthesis rate in primary rat hepatocytes). The following applies: inhibition of glycogen synthesis rate, 3 hours, read-out: EC50 GLP-1R Rat hepat. The class given is cell-based. An outline of the steps:
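Primary rat hepatocytes (40,000 cells/well, cultured 24 h) incubated 3 h with compound in KRBH buffer with 0.1% BSA, 22.5 mM glucose and D-[U14C]glucose. 14C incorporated into precipitated glycogen counted, background-subtracted and expressed as % of 0.1% DMSO vehicle (100% CTL). pEC50 from cpm versus log concentration; agonism lowers glycogen synthesis.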

Data set [3] in a line: Pharmacokinetic parameters after subcutaneous and intravenous administration to mice. The class given is in vivo. The following applies: male, mouse, plasma, 20 nmol/kg, C57Bl/6J mice; for half-life: read-out: Terminal half life (converted); for MRT: read-out: Mean Residence Time. On the procedure: Pharmacokinetic parameters of the test compounds were determined after subcutaneous and intravenous administration to C57Bl/6J mice.
8 week old male C57Bl/6J mice were obtained from Taconic (Denmark) weighing approximately 20-25 g at time of arrival at the test facility. The mice were caged in European standard cages type III with light cycle of 12-hour dark and 12-hour light (lights on 06.00). Both diet, Altromin 1324 (Altromin, Germany), and water was administered ad libitum during the whole experimental period. The 8-11 week animals were imported to the laboratory at least 7 days before the start up of the experimental procedure in order to assure proper acclimatization. After sampling the mice were euthanized by cervical dislocation.
The compounds were first dissolved in 0.096% aqueous ammonia to a nominal concentration of 2 mg/ml, and then diluted to the desired dosing strength (4 μM) in sterile PBS containing 25 mM phosphate buffer, pH 7.4. Subcutaneous and intravenous injections corresponding to 20 nmol/kg were given. The GLP-1-glucagon dual agonists were administered for subcutaneous dosing in the neck region and via a lateral tail vein for intravenous dosing.
Blood samples (250 μl) were collected from the periorbital plexus at time points 0.5, 2, 4, 6, 12, 16, 20, 24 h for subcutaneous and 10, 30 min, 3, 6, 12, 18, 24 h for intravenous administration into ice-chilled K3EDTA tubes and centrifuged for 5 minutes at 4° C. within 20 minutes of sampling. Plasma (>100 μl) was separated to ice-chilled Micronic tubes, immediately frozen, and kept at −70° C. until analysed for plasma concentration for the respective GLP-1-glucagon compound using LC-MS/MS. Individual plasma concentration-time profiles were analysed by a non-compartmental approach in WinNonLin v6.3 (Pharsight inc, Mountain View, Calif., USA), and the resulting pharmacokinetic parameters determined.

What is called EC50 is the concentration needed to bring the measured effect to its halfway point. A word on the half-life: it is how long it takes for the measured level to halve. One may read the Tmax as the time at which the peak concentration occurs. By bioavailability is commonly meant the share of a dose that reaches the circulation, judged against a reference dose that is usually intravenous. The low end stands for poor availability, the high end for good availability.

T1 sequence (P30082 27-485): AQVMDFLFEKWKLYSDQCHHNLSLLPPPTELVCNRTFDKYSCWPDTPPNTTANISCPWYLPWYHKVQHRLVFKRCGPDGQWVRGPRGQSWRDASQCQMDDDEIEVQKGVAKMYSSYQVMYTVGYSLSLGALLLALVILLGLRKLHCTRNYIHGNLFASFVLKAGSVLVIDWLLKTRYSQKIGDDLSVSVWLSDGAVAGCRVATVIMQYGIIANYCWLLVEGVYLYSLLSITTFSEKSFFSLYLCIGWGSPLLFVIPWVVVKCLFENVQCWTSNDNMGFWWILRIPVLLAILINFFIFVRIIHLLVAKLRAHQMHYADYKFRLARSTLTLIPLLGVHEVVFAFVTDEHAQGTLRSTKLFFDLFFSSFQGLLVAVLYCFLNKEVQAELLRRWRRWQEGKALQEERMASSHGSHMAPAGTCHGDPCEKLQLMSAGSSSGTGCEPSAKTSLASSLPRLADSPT

`CCCCCCCCCCCCCCCC(=O)N[C@@H](CCC(=O)NCCCC[C@H](NC(=O)[C@H](CO)NC(=O)[C@H](CC(=O)O)NC(=O)[C@H](CC(C)C)NC(=O)[C@H](Cc1ccc(O)cc1)NC(=O)[C@H](CCCCN)NC(=O)[C@H](CO)NC(=O)[C@H](Cc1ccc(O)cc1)NC(=O)[C@H](CC(=O)O)NC(=O)[C@H](CO)NC(=O)[C@@H](NC(=O)[C@H](Cc1ccccc1)NC(=O)[C@@H](NC(=O)CNC(=O)[C@H](CCC(N)=O)NC(=O)[C@H](CO)NC(=O)[C@@H](N)Cc1c[nH]cn1)[C@@H](C)O)[C@@H](C)O)C(=O)N[C@@H](C)C(=O)N[C@@H](C)C(=O)N[C@@H](CCC(=O)O)C(=O)N[C@@H](CC(=O)O)C(=O)N[C@@H](Cc1ccccc1)C(=O)N[C@H](C(=O)N[C@@H](CCC(=O)O)C(=O)N[C@@H](Cc1c[nH]c2ccccc12)C(=O)N[C@@H](CC(C)C)C(=O)N[C@@H](CC(C)C)C(=O)N[C@@H](CCCNC(=N)N)C(=O)N[C@@H](C)C(N)=O)C(C)C)C(=O)O` [Compound 7, H-HSQGTFTSDYSKYLDS-K(Hexadecanoyl-isoGlu)-AAEDFVEWLLRA-NH2] (H-HSQGTFTSDYSKYLDSK([γGlu-Palmitoyl])AAEDFVEWLLRA-NH2): the “Mean body weight change” value in data set [1] is −8.7%. In addition, in data set [2], the 50% effective concentration (EC50) is 1.92 nM. In addition, in data set [3] (IV), the clearance was 0.22 mL/min/kg and the half-life was 330 min. For the same molecule, in data set [3] (SC), the Tmax came out at 4 h, the bioavailability was 75%, the MRT is 12.8 h and the half-life was 516 min.
As for `CCCCCCCCCCCCCCCC(=O)N[C@@H](CCC(=O)NCCCC[C@H](NC(=O)[C@H](CO)NC(=O)[C@H](CC(=O)O)NC(=O)[C@H](CC(C)C)NC(=O)[C@H](Cc1ccc(O)cc1)NC(=O)[C@H](CCCCN)NC(=O)[C@H](CO)NC(=O)[C@H](Cc1ccc(O)cc1)NC(=O)[C@H](CC(=O)O)NC(=O)[C@H](CO)NC(=O)[C@@H](NC(=O)[C@H](Cc1ccccc1)NC(=O)[C@@H](NC(=O)CNC(=O)[C@H](CCC(N)=O)NC(=O)[C@H](CO)NC(=O)[C@@H](N)Cc1c[nH]cn1)[C@@H](C)O)[C@@H](C)O)C(=O)N[C@@H](C)C(=O)N[C@@H](C)C(=O)N[C@@H](Cc1c[nH]cn1)C(=O)N[C@@H](CC(=O)O)C(=O)N[C@@H](Cc1ccccc1)C(=O)N[C@H](C(=O)N[C@@H](CCC(=O)O)C(=O)N[C@@H](Cc1c[nH]c2ccccc12)C(=O)N[C@@H](CC(C)C)C(=O)N[C@@H](CC(C)C)C(=O)N[C@@H](CCCNC(=N)N)C(=O)O)C(C)C)C(=O)O` [Compound 9, H-HSQGTFTSDYSKYLDS-K(Hexadecanoyl-isoGlu)-AAHDFVEWLLR-OH] (H-HSQGTFTSDYSKYLDSK([γGlu-Palmitoyl])AAHDFVEWLLR-OH), in data set [2], the EC50 stood at 0.37 nM. Moreover, in data set [3] (IV), the clearance is 0.638 mL/min/kg and the half-life is 54 min. In data set [3] (SC), the time of peak concentration (Tmax) is 2 h, the bioavailability was 34%, the MRT stood at 4.7 h and the half-life was 174 min.
As to `CCCCCCCCCCCCCCCC(=O)N[C@@H](CCC(=O)NCCCC[C@H](NC(=O)[C@H](CO)NC(=O)[C@H](CC(=O)O)NC(=O)[C@H](CC(C)C)NC(=O)[C@H](Cc1ccc(O)cc1)NC(=O)[C@H](CCCNC(=N)N)NC(=O)[C@H](CO)NC(=O)[C@H](Cc1ccc(O)cc1)NC(=O)[C@H](CC(=O)O)NC(=O)[C@H](CO)NC(=O)[C@@H](NC(=O)[C@H](Cc1ccccc1)NC(=O)[C@@H](NC(=O)CNC(=O)[C@H](CCC(N)=O)NC(=O)[C@H](CO)NC(=O)[C@@H](N)Cc1c[nH]cn1)[C@@H](C)O)[C@@H](C)O)C(=O)N[C@@H](C)C(=O)N[C@@H](C)C(=O)N[C@@H](CCC(=O)O)C(=O)N[C@@H](CC(=O)O)C(=O)N[C@@H](Cc1ccccc1)C(=O)N[C@H](C(=O)N[C@@H](CCC(=O)O)C(=O)N[C@@H](Cc1c[nH]c2ccccc12)C(=O)N[C@@H](CC(C)C)C(=O)N[C@@H](CC(C)C)C(=O)N[C@@H](CCCNC(=N)N)C(=O)N[C@@H](C)C(N)=O)C(C)C)C(=O)O` [Compound 6, H-HSQGTFTSDYSRYLDS-K(Hexadecanoyl-isoGlu)-AAEDFVEWLLRA-NH2] (H-HSQGTFTSDYSRYLDSK([γGlu-Palmitoyl])AAEDFVEWLLRA-NH2), in data set [2], the EC50 came out at 2.87 nM. Further, in data set [3] (IV), the clearance was 0.157 mL/min/kg and the half-life is 222 min. In data set [3] (SC), the Tmax is 4 h, the bioavailability is 47%, the MRT was 10.6 h and the half-life was 258 min.
Turning to `CCCCCCCCCCCCCCCC(=O)N[C@@H](CCC(=O)NCCCC[C@H](NC(=O)[C@H](CCC(=O)O)NC(=O)[C@H](CC(=O)O)NC(=O)[C@H](CC(C)C)NC(=O)[C@H](Cc1ccc(O)cc1)NC(=O)[C@H](CCCCN)NC(=O)[C@H](CO)NC(=O)[C@H](Cc1ccc(O)cc1)NC(=O)[C@H](CC(=O)O)NC(=O)[C@H](CO)NC(=O)[C@@H](NC(=O)[C@H](Cc1ccccc1)NC(=O)[C@@H](NC(=O)CNC(=O)[C@H](CCC(N)=O)NC(=O)C(C)(C)NC(=O)[C@@H](N)Cc1c[nH]cn1)[C@@H](C)O)[C@@H](C)O)C(=O)N[C@@H](C)C(=O)N[C@@H](C)C(=O)N[C@@H](CCCCN)C(=O)N[C@@H](CC(=O)O)C(=O)N[C@@H](Cc1ccccc1)C(=O)N[C@H](C(=O)N[C@@H](CCC(=O)O)C(=O)N[C@@H](Cc1c[nH]c2ccccc12)C(=O)N[C@@H](CC(C)C)C(=O)N[C@@H](CC(C)C)C(=O)N[C@@H](CO)C(=O)N[C@@H](C)C(N)=O)[C@@H](C)CC)C(=O)O` [Compound 4, H-H-Aib-QGTFTSDYSKYLDE-K(Hexadecanoyl-isoGlu)-AAKDFIEWLLSA-NH2] (H-H[Aib]QGTFTSDYSKYLDEK([γGlu-Palmitoyl])AAKDFIEWLLSA-NH2), the concentration giving a half-maximal response (EC50) in data set [2] amounted to 0.35 nM. In addition, in data set [3] (IV), the clearance is 0.185 mL/min/kg and the half-life was 444 min. Moreover, in data set [3] (SC), the time of peak concentration (Tmax) is 4 h, the bioavailability was 53%, the MRT amounted to 12.5 h and the half-life is 384 min.
As to `CCCCCCCCCCCCCCCC(=O)N[C@@H](CCC(=O)NCCCC[C@H](NC(=O)[C@H](CO)NC(=O)[C@H](CC(=O)O)NC(=O)[C@H](CC(C)C)NC(=O)[C@H](Cc1ccc(O)cc1)NC(=O)[C@H](CCCCN)NC(=O)[C@H](CO)NC(=O)[C@H](Cc1ccc(O)cc1)NC(=O)[C@H](CC(=O)O)NC(=O)[C@H](CO)NC(=O)[C@@H](NC(=O)[C@H](Cc1ccccc1)NC(=O)[C@@H](NC(=O)CNC(=O)[C@H](CCC(N)=O)NC(=O)C(C)(C)NC(=O)[C@@H](N)Cc1c[nH]cn1)[C@@H](C)O)[C@@H](C)O)C(=O)N[C@@H](C)C(=O)N[C@@H](C)C(=O)N[C@@H](Cc1c[nH]cn1)C(=O)N[C@@H](CC(=O)O)C(=O)N[C@@H](Cc1ccccc1)C(=O)N[C@H](C(=O)N[C@@H](CCC(=O)O)C(=O)N[C@@H](Cc1c[nH]c2ccccc12)C(=O)N[C@@H](CC(C)C)C(=O)N[C@@H](CC(C)C)C(=O)N[C@@H](CO)C(=O)O)C(C)C)C(=O)O` [Compound 1, H-H-Aib-QGTFTSDYSKYLDS-K(Hexadecanoyl-isoGlu)-AAHDFVEWLLS-OH] (H-H[Aib]QGTFTSDYSKYLDSK([γGlu-Palmitoyl])AAHDFVEWLLS-OH), in data set [2], the concentration for a half-maximal effect (EC50) is 0.13 nM and 0.02 nM. Also, in data set [3] (IV), the clearance is 0.17 mL/min/kg and the half-life is 312 min. In data set [3] (SC), the Tmax came out at 4 h, the bioavailability is 52%, the MRT came out at 12.6 h and the half-life was 372 min.
